A short description of this experiment: Oxidation reducing capability for glyoxal by hydrogen peroxide-luminol chemiluminescence. Particulars: added to 1.0 mM, 10.0 mM and 100.0 mM glyoxal; compared to Comparative Example 1; n=3. How it is done: At the elapse of 30 seconds, 1000 μl of hydrogen peroxide was further mixed therein. Then, the chemiluminescence (CL) count (number of photons) was identified continuously for 150 seconds. Measurement was initiated when the CL counts came to 200 s per second (total time: 180 seconds). For the confirmation and measurement of the CL counts, a CL analyzer (product of TOHOKU ELECTRONIC INDUSTRIAL CO., LTD.) was employed. Using the dialysis solution preparation water of Example 1 and Comparative Example 1 obtained in Experiment 1, an evaluation experiment on the oxidation reducing capability for glyoxal was conducted. An evaluation experiment (n=3) employing hydrogen peroxide-luminol chemiluminescence similar to that of Experiment 1 was carried out, provided that the test liquid used was prepared by adding 45 μl of each dialysis solution preparation water into 45 μl of glyoxal with the concentration of 1.0 mM, 10.0 mM and 100.0 mM such that the total amount of the test liquid was 90 μl. For a reference example, a similar experiment (n=3) was carried out employing ascorbic acid (well known as a free radical scavenge substance). The test liquid was prepared such that the ascorbic acid was added to attain 1.0 μg/ml for […].

Each structure is given as a SMILES string.

With `O=C1O[C@H]([C@@H](O)CO)C(O)=C1O` [ascorbic acid], the CL total count result is listed as “reduced significantly”.

The values above are taken from patent US20090045121A1, “Dialysis Solution Preparation Water, Dialysis Solution Using Such Water, Method of Producing Dialysis Solution, and Dialysis Equipment” (priority 2006, published 2009).
